Results: US20020048549A1, “Radioactive transition metal nitride heterocomplex” (priority 1996, published 2002)
Read-outs that look alike come from different tables or passages of the source.

Assay: Biodistribution of 99mTc(N)(X)(DTC)+ heterocomplexes in rats
Type: in vivo, male Spraque-Dawley rats (SD rats)
Experimental: The biodistribution of a ^99mTc nitride heterocomplex represented by the general formula ^99mTc(N)(X)(Y) was investigated as follows: ^99mTc nitride heterocomplexes were synthesized using DTC as a bidentate ligand Y and each of the diphosphine compounds X described below, and the biodistribution in rats of each heterocomplex was investigated.
Before being injected into rats, the contents of the vial were diluted with phosphate buffer (0.1 mol/dm^3, pH=7.06) containing 10% Tween 80 ([…]). The complexes were stable in the solutions and in human plasma for at least 6 hours.
The biodistribution was measured using male Spraque-Dawley rats (SD rats) weighing 200 to 250 g. After 24 hours fasting, the rats were put under intraperitoneal anesthesia and given an injection in the jugular vein. Then, the organs were excised from the rats at different intervals of time, washed and then weighed. In addition, blood samples were collected and then weighed. The data on the biodistribution are expressed as the mean±significant difference of the percentage of radioactivity level per gram of the organ weight based on the dose of radioactivity, (% dose/g). The measurement was carried out using groups of 5 rats each.

## COCCC[P]1(CCCOC)CCN(CCOC)CC[P](CCCOC)(CCCOC)[99Tc+]12(#[N])[NH]N(C)C(SC)=[S]2 [^99mTc(N)(PNP3)(DTC)^+]
  Bone % dose/g: 0.198 ± 0.03 % dose/g
  Heart % dose/g: 2.704 ± 0.03 % dose/g
  Liver % dose/g: 1.5 ± 0.02 % dose/g
  Spleen % dose/g: 1.686 ± 0.03 % dose/g
0 min after injection
  Blood % dose/g: 1.149 ± 0.04 % dose/g
  Brain % dose/g: 0.096 ± 0.00 % dose/g
  Intestine % dose/g: 2.578 ± 0.350 % dose/g
  Kidney % dose/g: 8.289 ± 0.03 % dose/g
  Lung % dose/g: 2.133 ± 0.03 % dose/g
  Muscle % dose/g: 0.232 ± 0.07 % dose/g
  Stomach % dose/g: 1.121 ± 0.01 % dose/g
2 min after injection
  Blood % dose/g: 0.421 ± 0.10 % dose/g
  Bone % dose/g: 2.242 ± 0.02 % dose/g
  Brain % dose/g: 0.035 ± 0.01 % dose/g
  Heart % dose/g: 3.007 ± 0.16 % dose/g
  Intestine % dose/g: 4.188 ± 0.60 % dose/g
  Kidney % dose/g: 9.676 ± 0.620 % dose/g
  Liver % dose/g: 2.778 ± 0.06 % dose/g
  Lung % dose/g: 0.995 ± 0.17 % dose/g
  Muscle % dose/g: 0.264 ± 0.09 % dose/g
  Spleen % dose/g: 1.215 ± 0.1 % dose/g
  Stomach % dose/g: 0.740 ± 0.02 % dose/g
10 min after injection
  Blood % dose/g: 0.147 ± 0.02 % dose/g
  Bone % dose/g: 0.204 ± 0.00 % dose/g
  Brain % dose/g: 0.019 ± 0.00 % dose/g
  Heart % dose/g: 2.506 ± 0.10 % dose/g
  Intestine % dose/g: 10.959 ± 1.64 % dose/g
  Kidney % dose/g: 6.559 ± 0.928 % dose/g
  Liver % dose/g: 1.719 ± 0.14 % dose/g
  Lung % dose/g: 0.725 ± 0.104 % dose/g
  Muscle % dose/g: 0.252 ± 0.01 % dose/g
  Spleen % dose/g: 0.856 ± 0.12 % dose/g
  Stomach % dose/g: 0.852 ± 0.118 % dose/g
30 min after injection
  Blood % dose/g: 0.098 ± 0.01 % dose/g
  Bone % dose/g: 0.230 ± 0.04 % dose/g
  Brain % dose/g: 0.012 ± 0.00 % dose/g
  Heart % dose/g: 2.551 ± 0.10 % dose/g
  Intestine % dose/g: 10.201 ± 1.28 % dose/g
  Kidney % dose/g: 5.354 ± 1.00 % dose/g
  Liver % dose/g: 0.732 ± 0.08 % dose/g
  Lung % dose/g: 0.446 ± 0.00 % dose/g
  Muscle % dose/g: 0.273 ± 0.05 % dose/g
  Spleen % dose/g: 0.550 ± 0.06 % dose/g
  Stomach % dose/g: 1.511 ± 0.39 % dose/g
1 hr after injection
  Blood % dose/g: 0.071 ± 0.00 % dose/g
  Bone % dose/g: 0.099 ± 0.00 % dose/g
  Brain % dose/g: 0.014 ± 0.00 % dose/g
  Heart % dose/g: 2.155 ± 0.29 % dose/g
  Intestine % dose/g: 5.447 ± 0.87 % dose/g
  Kidney % dose/g: 4.127 ± 0.178 % dose/g
  Liver % dose/g: 0.500 ± 0.01 % dose/g
  Lung % dose/g: 0.329 ± 0.05 % dose/g
  Muscle % dose/g: 0.236 ± 0.04 % dose/g
  Spleen % dose/g: 0.238 ± 0.02 % dose/g
  Stomach % dose/g: 0.892 ± 0.085 % dose/g
2 hr after injection
  Blood % dose/g: 0.049 ± 0.00 % dose/g
  Bone % dose/g: 0.121 ± 0.00 % dose/g
  Brain % dose/g: 0.009 ± 0.00 % dose/g
  Heart % dose/g: 2.721 ± 0.06 % dose/g
  Intestine % dose/g: 2.720 ± 0.11 % dose/g
  Kidney % dose/g: 3.139 ± 0.20 % dose/g
  Liver % dose/g: 0.164 ± 0.04 % dose/g
  Lung % dose/g: 0.312 ± 0.2 % dose/g
  Muscle % dose/g: 0.268 ± 0.88 % dose/g
  Spleen % dose/g: 0.300 ± 0.05 % dose/g
  Stomach % dose/g: 1.521 ± 0.50 % dose/g
4 hr after injection
  Blood % dose/g: 0.030 ± 0.00 % dose/g
  Bone % dose/g: 0.079 ± 0.01 % dose/g
  Brain % dose/g: 0.009 ± 0.00 % dose/g
  Heart % dose/g: 2.503 ± 0.13 % dose/g
  Intestine % dose/g: 1.810 ± 0.716 % dose/g
  Kidney % dose/g: 2.536 ± 0.12 % dose/g
  Liver % dose/g: 0.155 ± 0.00 % dose/g
  Lung % dose/g: 0.219 ± 0.01 % dose/g
  Muscle % dose/g: 0.245 ± 0.031 % dose/g
  Spleen % dose/g: 0.195 ± 0.02 % dose/g
  Stomach % dose/g: 0.485 ± 0.07 % dose/g
rats
  elimination from kidney and liver: relatively rapidly eliminated
  washout from lung and blood: rapidly washed out
rats, throughout the measurement
  accumulation in heart: very large amount
